We go through one compound from patent US12097213B2, “Sequential treatment of cancers using 6-thio-dG, checkpoint inhibitors and radiation therapy” (The Board of Regents of the University of Texas System, priority 2020, dated 2024).

Series [1] relates to CT26 murine colon cancer cells. The series can be described thus: Cell viability assay (CellTiter 96), CT26. It counts as cell-based, mouse. As for the experimental part: (§1) Cell viability assay. For determination of IC50 with cell proliferation assays, murine and human cancer cell lines were screened with 6-thio-dG with a 2-fold dilution series in 8 different points in 96-well plates. Cells were plated 24 hrs prior to the addition of drug, incubated for 4-5 days, and assayed using CellTiter 96® Aqueous One Solution Cell Proliferation Assay according to the manufacturer's instructions (Promega). Cell number per well ranged from 1,000 to 10,000 cells per well inversely proportional to doubling times. Dose response curves were generated and IC50s calculated using Graphpad Prism. All samples were analyzed in triplicate and standard deviations are from 2-3 independent experiments.

For series [2], the system named is LLC murine lung tumor cells. The series can be described thus: LLC tumor growth and treatment in mice. It counts as in vivo, mouse. The protocol: Tumor growth and treatment. A total of 5×10^5 MC38, 5×10^5 CT26 or 1×10^6 LLC cells were inoculated subcutaneously into right dorsal flanks of the mice in 100 μL phosphate buffered saline (PBS). Tumor-bearing mice were randomly grouped into treatment groups when tumors grew to around 100 mm^3. […] For CSF1R, NKL.1, CD4+ and CD8+ T cell depletion, 200 μg of antibodies were intraperitoneally injected 1 day before treatment initiation and then twice a week for 2 weeks. For PD-L1 blockade combination therapy in MC38 model, 6-thio-dG was given on day 10 and day 11, 50 μg PD-L1 was intraperitoneally injected on day 13 and 17. For PD-L1 blockade combination therapy in LLC model, 6-thio-dG was given on day 4, 5, 6, 10 and 11, 200 μg PD-L1 was intraperitoneally injected on day 8 and 13. Tumor volumes were measured by the length (a), width (b) and height (h) and calculated as tumor volume=abh/2.

The test system of series [3] is MC38 cells. The series can be described thus: Colony formation assay. In kind it is cell-based, mouse. The conditions noted are these: 0.5 μM 6-thio-dG every three days for 13 days. As for the experimental part: Colony formation assay. MC38 cells were seeded in three different concentrations on six well plates (1000-4000 cells/well) and treated with various drug concentrations every 3-4 days. Following 13 days treatment, cells were fixed and stained with 6% glutaraldehyde (Fisher Scientific) plus 0.5% crystal violet (Sigma) solution. After washing with tap water, cells were air-dried and images captured using a G-BOX (Syngene, model: G-BOX F3).

The test system of series [4] is LLC murine lung cancer cells. The series can be described thus: Cell viability assay (CellTiter 96), LLC. In kind it is cell-based, mouse. The conditions noted are these: treated for 4 days. The protocol:
as §1

Series [5] deals with MC38 cells. The series can be described thus: Cell viability assay (CellTiter 96), MC38. In kind it is cell-based. The conditions noted are these: Mus musculus, MC-38, 120 h; cells treated for 5 days; read-out: IC50 concentration, cell viability. As for the experimental part:
as §1

The subject of a further series is TBK1. The series can be described thus: Immunoblotting of DCs after co-culture. Particulars: co-culture 6 hrs with MC38 pretreated with 0.2 μM or 1 μM 6-thio-dG. In kind it is cell-based, mouse. As for the experimental part:
Immunoblotting. BMDC and MC38 treatment were same as “In vitro co-culture of bone marrow dendritic cells”. 6 hrs after co-culture, DC was isolated with CD11c+ positive selection kit (Stemcell). Protein sample preparation and immunoblot procedures were performed as previously described (Liu et al., 2019). Proteins were detected with rabbit monoclonal antibodies for pSTING (Cell signaling, 72971), STING (Cell signaling, 50494), pTBK1 (Cell signaling, 5483), TBK1 (Cell signaling, 3504). Protein loading was determined with antibodies against with Cyclophilin A (Cell signaling, 2175). Anti-rabbit (1:2000 in 5% BSA) was used for secondary antibody (Cell signaling, 7074). X-ray film (GeneMate, F-9024-8X10) was used to develop the membranes. Clarity Max Western ECL Substrate (Biorad, 1705062) or Supersignal West PicoPlus Chemiluminescent Substrate (Thermoscientific, 34577) was used for chemiluminescent western blot.
For orientation: In western blotting, separated proteins are transferred to a membrane and probed.

Series [6] concerns tumor-derived xenograft models. The conditions noted are these: many tumor-derived xenograft models; cited from earlier work.
Series [7] deals with HCT116 human colon cancer cells. The series can be described thus: Cell viability assay (CellTiter 96), HCT116. In kind it is cell-based. The conditions noted are these: HCT-116, 120 h, cells treated for 5 days. As for the experimental part:
as §1

Another series relates to CT26 tumor cells. The series can be described thus: CT26 tumor growth and treatment in mice. It counts as in vivo, mouse. The conditions noted are these: BALB/C mice; 3 mg/kg, three days treatment (days 5, 6, 7). The protocol:
Tumor growth and treatment. A total of 5×10^5 MC38, 5×10^5 CT26 or 1×10^6 LLC cells were inoculated subcutaneously into right dorsal flanks of the mice in 100 μL phosphate buffered saline (PBS). Tumor-bearing mice were randomly grouped into treatment groups when tumors grew to around 100 mm^3. For 6-thio-dG single treatment, 3 mg/kg 6-thio-dG was intraperitoneally given on days 7, 8 and 9 in MC38 tumor and LLC tumor and on days 5, 6, 7 for CT26 tumor. For CSF1R, NKL.1, CD4+ and CD8+ T cell depletion, 200 μg of antibodies were intraperitoneally injected 1 day before treatment initiation and then twice a week for 2 weeks. For PD-L1 blockade combination therapy in MC38 model, 6-thio-dG was given on day 10 and day 11, 50 μg PD-L1 was intraperitoneally injected on day 13 and 17. For PD-L1 blockade combination therapy in LLC model, 6-thio-dG was given on day 4, 5, 6, 10 and 11, 200 μg PD-L1 was intraperitoneally injected on day 8 and 13. Tumor volumes were measured by the length (a), width (b) and height (h) and calculated as tumor volume=abh/2.

With `Nc1nc2c(ncn2[C@H]2C[C@H](O)[C@@H](CO)O2)c(=S)[nH]1` [6-thio-dG, 6-thio-2′-deoxyguanosine], the “cell viability in vitro” value in series [1] and in series [4] was “cell viability inhibition” each time. In addition, the tumor growth result in series [2] (C57BL/6 mice, 3 mg/kg, three days treatment (days 4, 5, 6)) is given as “significant tumor growth delay”; in the series on CT26 tumor cells it was “significant tumor growth delay”. Moreover, the “tumor growth (FIG. 8A)” value in series [2] (lewis lung carcinoma, three days 6-thio-dG followed two days later with anti-PD-L1) is given as “significant tumor control for 20 days”. Also, the cells forming colonies entry in the series on MC38 cells [3] was “less than 50%”. Also, the IC50 with MC38 cells [5] worked out at 0.37 µM; in series [7], 0.73 µM. Moreover, in the series with TBK1, the “TBK1 phosphorylation in DCs” value was “increase”. Also, in series [6], the “side effects in xenograft models” value is on record as “minimal side effects”. For the same compound, the “tumor response in xenograft models” value in [6] is reported as “rapid tumor shrinkage or growth arrest”.
